Measured values taken from publication PMC2915899 (Journal of medicinal chemistry, 2010).

Experiments:
baNadD = baNadD (Bacillus anthracis, UniProt C3L5T6); assay type: biochemical
NadD = NadD inhibition, enzyme species not stated at the place; assay type: biochemical; details: 1_02_1 compared with 1_13 and 1_15 (Fig. 4A)

baNadD, sequence (C3L5T6 whole entry, looked up): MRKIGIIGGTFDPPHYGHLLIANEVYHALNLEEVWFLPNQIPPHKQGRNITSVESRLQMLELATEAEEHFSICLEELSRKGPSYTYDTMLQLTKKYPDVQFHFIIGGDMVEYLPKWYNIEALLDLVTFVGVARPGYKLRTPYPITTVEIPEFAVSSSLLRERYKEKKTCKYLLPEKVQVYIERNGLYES

| Molecule | inhibition of baNadD (baNadD) | improvement in activity over monomeric precursors 1_13 and 1_15 (NadD) |
| --- | --- | --- |
| {N'-(4-{Carboxymethyl-[3-(2-chloro-phenylcarbamoyl)-propionyl]-hydrazonomethyl}-benzylidene)-N-[3-(2-chloro-phenylcarbamoyl)-propionyl]-hydrazino}-acetic acid [Compound 1_02_2] | did not inhibit | – |
| O=C(CCC(=O)Nc1ccccc1Cl)N/N=C/c1ccc(/C=N/NC(=O)CCC(=O)Nc2ccccc2Cl)cc1 [Compound 1_02_1, N-(2-Chloro-phenyl)-3-(4-{[3-(2-chloro-phenylcarbamoyl)-propionyl]-hydrazonomethyl}-benzylidene-hydrazinocarbonyl)-propionamide] | – | more than 10 fold |
